Reference: PMC4155172, “Killing of melanoma cells and their metastases by human lactoferricin derivatives requires interaction with the cancer marker phosphatidylserine” (Biometals, 2014)
pIC50: −log10 of the molar value. Where a SMILES comes first, the peptide text is derived from it. The star is where a group is joined. Octanoyl(6-Me) = CCC(C)CCCCC(=O)*

Key:
RBCs = settings: 2.5 % RBCs, 500 µg peptide/ml; ref Zweytick et al. [2011b]; cited from earlier work
Description: The correlation of activity against bacteria with activity on bacterial model systems for lactoferricin derived peptides and their N-acylated derivatives was shown recently (Zweytick et al. [2011b]).

[1] = Differential scanning calorimetry of DPPC liposomes; settings: for Bilayer perturbation—DSC, healthy mimic: second symbol of cancer mimic/healthy mimic; for Bilayer perturbation—DSC, healthy mimic: key: +, peptide effect; ++, increasing peptide effect; +++: etc; ++++: etc; −, no peptide effect
Method: (§1) Appropriate amounts of respective phospholipid stock solution were dried under a stream of nitrogen and stored in vacuum overnight to completely remove organic solvents. The dry lipid film was then dispersed in phosphate buffered saline (PBS, 20 mM NaPi, 130 mM NaCl, pH 7.4) and hydrated at a temperature well above the gel to fluid phase transition of the respective phospholipid under intermittent vigorous vortex-mixing. The lipid concentration was 0.1 weight % for calorimetric and 2 % for leakage experiments. Hydration was carried out in presence or absence of peptides at a lipid-to-peptide ratio of 25:1 and 12.5:1 using a protocol described for POPS (Jiménez-Monreal et al. [1998]), DPPS (Jing et al. [2005]) and DPPC (Sevcsik et al. [2007]). Briefly hydration of POPS films occurred at 30 °C, DPPS at 65 °C and DPPC at 50 °C, for 2 h with vortexing for 1 min every 15 min. The hydration of the lipid mixtures DPPS/DPPC 1:5 and DPPS/DPPC 1:1 were performed at 65 °C for 2 h by vortexing accompanied by one freeze–thaw cycle every 15 min. The fully hydrated samples were stored for at least 1 h at room temperature until measurement.
(§2) DSC experiments were performed with a differential scanning calorimeter (VP-DSC) from MicroCal, Inc. (Northhampton, MA, USA). Heating scans were performed at a scan rate of 30 °C/h (pre-scan thermostating 30 min) with a final temperature of approximately 10 °C above the main transition temperature (Tm) and cooling scans at the same scan rate (pre-scan thermostating 1 min) with a final temperature approximately 20 °C below Tm. The heating/cooling cycle was performed three times. Enthalpies were calculated by integration of the peak areas after normalization to phospholipid concentration and baseline adjustment using the MicroCal Origin software (VP-DSC version). The phase transition temperature was defined as the temperature at the peak maximum (McElhaney [1982]).

[2] = Differential scanning calorimetry of DPPS liposomes; settings: for Bilayer perturbation—DSC, cancer mimic: first symbol of cancer mimic/healthy mimic; for Bilayer perturbation—DSC, cancer mimic: key: +, peptide effect; ++, increasing peptide effect; +++: etc; ++++: etc; −, no peptide effect
Method: as §1, §2

[3] = ANTS/DPX leakage from POPC LUVs; settings: for Permeability—ANTS/DPX leakage, healthy mimic: second symbol of cancer mimic/healthy mimic; for ANTS/DPX release from POPC liposomes: 2–8 µM peptide; for Permeability—ANTS/DPX leakage, healthy mimic: key: +, peptide effect; ++, increasing peptide effect; +++: etc; ++++: etc; −, no peptide effect
Method: [The procedure below names another target; the source lists this target under the same test.] as §1
(§3) Leakage of aqueous contents from liposomes was determined using the 8-aminonaphthalene-1,3,6-trisulfonic acid/p-xylene-bis-pyridinium bromide (ANTS/DPX) assay (Ellens et al. [1985]). Lipid films (preparation see above) were hydrated with 12.5 mM ANTS, 45 mM DPX, 68 mM NaCl, 10 mM HEPES (4-(2-hydroxyethyl)-1-piperazineethanesulfonic acid) at pH 7.4 following a standard procedure. Subsequently, the dispersions were extruded 20 times through a polycarbonate filter (Millipore-Isopore™) of 0.1 µm pore size to obtain LUVs. Unilamellarity and size were tested by X-ray and dynamic light scattering, respectively. The ANTS/DPX encapsulating vesicles were separated from free ANTS/DPX by exclusion chromatography using a column filled with Sephadex™ G-75 (Amesham Biosciences) fine gel swollen in an isosmotic buffer (10 mM HEPES, 140 mM NaCl, pH 7.4). The void volume fractions were collected and the phospholipid concentration was determined by phosphate analysis (Bartlett [1959]; Broekhuyse [2005]). The fluorescence measurements were performed in 2 mL of the isosmotic buffer in a quartz cuvette at 37 °C. Aliquots of LUVs were diluted with the isosmotic buffer to a final lipid concentration of 50 µM. Fluorescence spectra were obtained at 37 °C using an excitation wavelength of 360 nm, an emission wavelength of 530 nm and a slit width of 5 nm for both excitation and emission monochromators. Fluorescence emission was recorded as a function of time before and after the addition of incremental amounts of peptide. The fluorescence increase due to leakage and subsequent dilution of quenched dye was measured after addition of peptides. Peptides were added to final concentrations of 2, 4 and 8 µM, corresponding to peptide-to-lipid molar ratios of 1:25, 1:12.5 and 1:6.25, respectively. Data are presented in terms of fluorescence intensity (IF and were calculated using Eq. 3:3 IF=F-F0/Fmax-F0 F is the measured fluorescence, F0 the initial fluorescence without peptide and Fmax the fluorescence corresponding to 100 % leakage gained by addition of 1 % Triton X-100.

[4] = Tryptophan fluorescence and acrylamide quenching with DPPS membranes; design: key: +, peptide effect; ++, increasing peptide effect; +++: etc; ++++: etc; −, no peptide effect; settings: first symbol of cancer mimic/healthy mimic (PS)
Method: as §1
(§4) Fluorescence spectroscopy experiments were performed using a SPEX Fluoro Max-3 spectrofluorimeter (Jobin–Yvon, Longjumeaum, France) and spectra were analyzed with Datamax software.
(§5) Tryptophan fluorescence spectra were obtained at room temperature using an excitation wavelength of 282 nm and a slit width of 5 nm for excitation and emission monochromators. Quenching of Tryptophan was carried out in the presence and absence of phospholipid liposomes (lipid-to-peptide ratio 25:1) using 0.1, 0.4 and 0.7 M acrylamide. The data were analyzed according to the Stern–Volmer equation (Eq. 2):2 F0F0FF=1+KSVQ where F0 and F represent the fluorescence emission intensities in the absence and presence of the quencher molecule (Q) and KSV is the Stern–Volmer quenching constant, which is a quantitative measure for the accessibility of tryptophan to acrylamide (Tao and Cho [1979]).

[5] = test system: differentiated non-tumorigenic melanocytes; settings: for melanocytes killed (PI-uptake): 20 µM peptide, 8 h, media containing serum
Method: Human melanocytes used as healthy control cells were isolated from foreskin. Foreskin was cut into small pieces and incubated with 0.3 % trypsin (PAA) overnight at 4 °C and for 1 h at 37 °C. Epidermis was separated. Cells were mechanically removed from the cell layer and centrifuged at 300 g for 3 min. The pellet was re-suspended and cells further cultured in melanocyte growth medium (Biomedica, Vienna, Austria, PromoCell GmbH, Heidelberg, Germany). All cells were kept in a 5 % CO2 atmosphere at 37 °C. At 90 % confluence cell-culture flasks were passaged after detachment with accutase (PAA, Pasching Austria). All cell cultures were periodically checked for mycoplasma.
Cells were collected, re-suspended in media and diluted to a concentration of 10^6 cells/ml. Aliquots of 10^5 cells/100 µl media were incubated with different amount of peptides (0–80 µM) for 8 h at 37 °C and 5 % CO2. Propidium iodide (PI) (2 µl/10^5cells of 50 µg/ml, Invitrogen, Camarillo, CA, USA) was added and cells were again incubated for 5 min at room temperature in the dark. Excitation and emission wavelengths were 536 and 617 nm, respectively. Cytotoxicity was calculated from the percentage of PI positive cells in media alone (P0) and in the presence of peptide (PX). […] Triton-X-100 was used to determine 100 % of PI positive cells (P100).1 %PI-uptake=100∗(PX-P0)/(P100-P0)

[6] = test system: melanoma cell line SBcl-2; test: Propidium iodide-uptake toxicity assay, melanoma SBcl-2; assay type: cell-based, human; design: Toxicity—PI uptake, cancer cells / Cancer specificity: key: +, peptide effect; ++, increasing peptide effect; +++: etc; ++++: etc; −, no peptide effect; settings: for Toxicity—PI uptake, cancer cells: first symbol of cancer cells/healthy cells
Description: (§6) Epidermis was separated. […] All cell cultures were periodically checked for mycoplasma.

[7] = Differential scanning calorimetry of DPPC/DPPS 1:1 liposomes; settings: lipid to peptide 25:1
Method: as §1, §2

[8] = ANTS/DPX leakage from POPS LUVs; settings: for ANTS/DPX release from POPS vesicles: 50 µM lipid LUVs; for specificity/selectivity for cancer over non-cancer mimic, ANTS/DPX leakage: POPS versus POPC LUVs; for Permeability—ANTS/DPX leakage, cancer mimic: first symbol of cancer mimic/healthy mimic
Method: as §1, §3

[9] = Tryptophan fluorescence and acrylamide quenching with DPPC membranes; settings: second symbol of cancer mimic/healthy mimic; note: key: +, peptide effect; ++, increasing peptide effect; +++: etc; ++++: etc; −, no peptide effect
Method: as §1, §4, §5

E. coli = settings: ref Zweytick et al. [2011b]; cited from earlier work
Description: It has been reported by Yang et al. (Yang et al. [2004]) that a prerequisite for antitumor but not for antibacterial peptides derived of bovine lactoferrin is a minimum net charge close to +7 and to consist of at least 14 amino acids.

[10] = test system: melanoma metastases WM164; test: Propidium iodide-uptake toxicity assay, melanoma metastases WM164; assay type: cell-based, human; settings: 20 µM peptide, 8 h
Description: as §6

[11] = Differential scanning calorimetry of DPPC/DPPS 5:1 liposomes; settings: lipid to peptide 25:1, split transition given as peak/peak
Method: as §1, §2

[12] = DPPC liposomes in PBS pH 7.4, lipid to peptide 25:1, scan rate 30 °C/h
[13] = DPPC liposomes, lipid to peptide 25:1
[14] = DPPC liposomes, lipid to peptide 25:1, transition half-width
[15] = 25:1 lipid-to-peptide molar ratio
[16] = DPPS liposomes, lipid to peptide 25:1, split transition given as peak/peak
[17] = 8 µM peptide (peptide-to-lipid 1:6.25), 10 mM HEPES 140 mM NaCl pH 7.4, 37 °C, fluorescence
[18] = DPPC liposomes, lipid to peptide 12.5:1
[19] = 50 µM lipid LUVs, pH 7.4, 37 °C

| Compound | ΔH pre [1, 12] | Tpre [1, 13] | ΔH m [1, 13] | T1/2 [1, 14] | Bilayer perturbation—DSC, healthy mimic [1] | reduction of the main transition enthalpy of DPPS [2, 15] | T1/2 [2, 16] | Bilayer perturbation—DSC, cancer mimic [2] | Permeability—ANTS/DPX leakage, healthy mimic [3] | Bilayer affinity—quenching, cancer mimic [4] | Toxicity—PI uptake, healthy cells [5] | melanocytes killed (PI-uptake) [5] | specificity for cancer cells, PI-uptake ratio melanoma SBcl-2 versus melanocytes ([6]; 20 µM peptide, 8 h) | Toxicity—PI uptake, cancer cells [6] | T1/2 [7] | Tm [7] | ΔH m [7] | ANTS/DPX release from POPS vesicles [8, 17] | Permeability—ANTS/DPX leakage, cancer mimic [8] | Bilayer affinity—quenching, healthy mimic [9] | other results |
| --- | --- | --- | --- | --- | --- | --- | --- | --- | --- | --- | --- | --- | --- | --- | --- | --- | --- | --- | --- | --- | --- |
| CCC(C)CCCCC(=O)N1CCC[C@H]1C(=O)N[C@@H](Cc1ccccc1)C(=O)N[C@@H](Cc1c[nH]c2ccccc12)C(=O)N[C@@H](CCCNC(=N)N)C(=O)N[C@H](C(=O)N[C@@H](CCCNC(=N)N)C(=O)N[C@H](C(=O)N[C@@H](CCCNC(=N)N)C(=O)N[C@@H](CCCNC(=N)N)C(N)=O)[C@@H](C)CC)[C@@H](C)CC (stereo partly drawn) [6-MO-LF11-322] ({Octanoyl(6-Me)}-PFWRIRIRR-NH2) | 0.4 kcal/mol | 34.6 °C | 9.1 kcal/mol | 0.26 °C | + | 35% | 2.24 °C | ++ | + | ++ | + | ~ 15% | threefold to fourfold | ++ | 2.45 °C | 43.3 °C | 5.4 kcal/mol | ~70% | ++ | + | lysis of RBCs (RBCs): 20%; leakage of POPC vesicles ([3]; peptide-to-lipid molar ratio of 1:6.25 (8 µM), 50 µM lipid LUVs, pH 7.4, 37 °C): about 20%; pIC50 ([6]; PI-uptake, cancer cells, 8 h, media containing serum): ~4.70; specificity for cancer cells after 1 h ([6]; after 1 h, data not shown): sevenfold; ANTS/DPX release from POPS vesicles ([8]; 4 µM peptide (peptide-to-lipid 1:12.5), pH 7.4, 37 °C): ~ 30%; specificity/selectivity for cancer over non-cancer mimic, ANTS/DPX leakage [8]: threefold |
| PFWRIRIRR-NH2 [LF11-322] | 1.1 kcal/mol | 34.8 °C | 9.0 kcal/mol | 0.17 °C | − | 10% |  | + | − | ++ |  |  |  |  | 2.42 °C | 44.2 °C | 8.3 kcal/mol | ~ 20% | + | − | minimal inhibitory concentration for E. coli (E. coli): 8 to 16 µg/mL; T1/2 [1, 18]: 0.26 °C; Tm [1, 18]: 41.3 °C; Tpre [1, 18]: 34.5 °C; ΔH m [1, 18]: 9.2 kcal/mol; ΔH pre [1, 18]: 1.0 kcal/mol; Tm [1, 13]: 41.3 °C; T1/2 ([2]; DPPS liposomes, lipid to peptide 12.5:1): 2.48 °C; ANTS/DPX release from POPC liposomes [3, 19]: < 5%; specificity, PI-uptake ratio melanoma metastases WM164 versus melanocytes [10]: twofold; killing (PI-uptake) of SBcl-2 ([6]; 80 µM peptide, 8 h, media containing serum, 37 °C): < 10%; T1/2 [11]: 0.80 °C; Tm [11]: 42.4 °C; ΔH m [11]: 10.1 kcal/mol |
| PFWRIRIRRPRRIRIRWFP-NH2 [R-DIM-P-LF11-322, retro repeat derivative: LF11-322-proline-LF11-322 retro] | 1.5 kcal/mol | 34.5 °C | 9.1 kcal/mol | 0.25 °C | − | 70% | 1.53 °C | +++ | − | ++ | − | < 1% | higher than 1,000 fold | +++ | 1.08 °C | 42.4 °C | 7.9 kcal/mol | 90–100% | +++ | − | Tm [1, 13]: 41.3 °C; decrease of the transition temperature of DPPS [2, 15]: ~5 °C; Tm [2, 16]: 47.9 °C; ΔH m [2, 16]: 3.1 kcal/mol; ANTS/DPX release from POPC liposomes [3, 19]: < 5%; specificity, PI-uptake ratio melanoma metastases WM164 versus melanocytes [10]: > 500 fold; PI positive SBcl-2 cells ([6]; 20 µM peptide, 8 h, media containing serum): more than 80%; Cancer specificity ([6]; cancer cells/healthy cells): ++++; specificity/selectivity for cancer over non-cancer mimic, ANTS/DPX leakage [8]: up to 20 fold; T1/2 [11]: 0.83 °C; Tm [11]: 42.2 °C; ΔH m [11]: 8.2 kcal/mol |
